Measured values reported in US12064426B2, “Selective inhibitors of ROCK1 and ROCK2 protein kinases and uses thereof” (GENOSCO Inc., priority 2021, dated 2024).

Experiments:
[1] = biological target: T1, Recombinant ROCK2 (amino acids 5-554) (Homo sapiens, UniProt O75116); test: ROCK inhibition assay, LANCE Ultra TR-FRET kinase assay (ROCK2); type: biochemical; conditions: 4 μM ATP, 50 nM ULight-CREBtide substrate
T1 construct: ROCK2 (amino acids 5-554); by word order, ROCK2 from SignalChem
How it was run: (§1)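 LANCE Ultra TR-FRET kinase assay with recombinant ROCK1 (aa 1-477) or ROCK2 (aa 5-554), 50 nM ULight-CREBtide and ATP at 1 μM (ROCK1) or 4 μM (ROCK2) in HEPES pH 7.5 with MgCl2, 1 h at room temperature. EDTA stop with Eu anti-phospho-CREB Ser133 antibody; 665/615 nm read gives IC50.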

[2] = biological target: T2, Recombinant ROCK1 (amino acids 1-477) (Homo sapiens, UniProt Q13464); test: ROCK inhibition assay, LANCE Ultra TR-FRET kinase assay (ROCK1); type: biochemical; conditions: 1 μM ATP, 50 nM ULight-CREBtide substrate
T2 construct: Recombinant ROCK1 (amino acids 1-477); by word order, ROCK1 from Carna Biosciences
How it was run: as §1

T2 sequence (Q13464 1-477): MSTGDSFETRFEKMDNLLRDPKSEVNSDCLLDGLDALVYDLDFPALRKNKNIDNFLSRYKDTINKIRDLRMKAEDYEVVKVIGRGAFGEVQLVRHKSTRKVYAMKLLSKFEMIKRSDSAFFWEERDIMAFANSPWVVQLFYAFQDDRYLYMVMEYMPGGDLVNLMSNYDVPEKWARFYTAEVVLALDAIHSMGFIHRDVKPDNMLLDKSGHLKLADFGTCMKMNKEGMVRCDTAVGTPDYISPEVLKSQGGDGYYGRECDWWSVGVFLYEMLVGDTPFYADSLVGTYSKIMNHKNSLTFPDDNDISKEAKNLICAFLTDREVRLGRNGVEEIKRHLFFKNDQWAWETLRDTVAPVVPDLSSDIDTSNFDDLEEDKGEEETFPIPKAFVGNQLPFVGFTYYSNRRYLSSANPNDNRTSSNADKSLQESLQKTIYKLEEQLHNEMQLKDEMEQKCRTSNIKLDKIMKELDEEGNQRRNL
T1 sequence (O75116 5-554): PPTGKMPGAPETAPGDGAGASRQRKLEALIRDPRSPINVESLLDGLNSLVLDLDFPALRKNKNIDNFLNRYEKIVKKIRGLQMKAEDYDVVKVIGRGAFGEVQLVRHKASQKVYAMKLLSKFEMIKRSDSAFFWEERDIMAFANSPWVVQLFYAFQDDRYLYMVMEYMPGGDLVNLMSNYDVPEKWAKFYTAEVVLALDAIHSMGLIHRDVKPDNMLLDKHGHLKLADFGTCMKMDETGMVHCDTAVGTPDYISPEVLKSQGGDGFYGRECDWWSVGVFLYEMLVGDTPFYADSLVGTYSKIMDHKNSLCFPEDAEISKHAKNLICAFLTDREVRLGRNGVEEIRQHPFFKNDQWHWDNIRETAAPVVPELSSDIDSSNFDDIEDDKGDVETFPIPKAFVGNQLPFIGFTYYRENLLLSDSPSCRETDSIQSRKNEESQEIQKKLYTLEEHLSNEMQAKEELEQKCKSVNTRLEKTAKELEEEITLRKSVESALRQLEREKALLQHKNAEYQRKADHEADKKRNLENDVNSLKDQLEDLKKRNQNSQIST

| SMILES | IC50 [1] | IC50 [2] |
| --- | --- | --- |
| CNC(=O)c1cc(F)cc([C@@H](C)n2cnc3cc(-c4cn[nH]c4C(F)F)ccc3c2=O)c1 [Compound 463] | < 10 nM | 11 to 100 nM |
| Cc1nocc1-c1ccc2c(=O)n([C@H](C)c3cccc(C(=O)N(C)C)c3)cnc2c1 [Compound 470] | > 500 nM | > 501 nM |
| [2H]C([2H])([2H])NC(=O)c1cccc([C@@H](C)n2cnc3cc(-c4conc4C)ccc3c2=O)c1 [Compound 471] | < 10 nM | 11 to 100 nM |
| Cc1nocc1-c1ccc2c(=O)n([C@H](C)c3cccc(C(=O)NCC(F)(F)F)c3)cnc2c1 [Compound 475] | < 10 nM | 11 to 100 nM |
| C[C@H](c1cccc(C(=O)N(C)C)c1)n1cnc2cc(-c3ccnc(N)c3)ccc2c1=O [Compound 482] | > 500 nM | > 501 nM |
| O=c1c2ccc(-c3ccncc3)cc2ncn1C(CO)c1cccc(Cl)c1 (stereo not drawn) [Compound 483, 3-(1-(3-chlorophenyl)-2-hydroxyethyl)-7-(pyridin-4-yl)quinazolin-4(3H)-one] | 10 to 100 nM | 101 to 500 nM |
| Nc1cc(-c2ccc3c(=O)n(C(CO)c4cccc(Cl)c4)cnc3c2)ccn1 (stereo not drawn) [Compound 484] | 10 to 100 nM | 101 to 500 nM |
| Cc1[nH]ncc1-c1ccc2c(=O)n(C(CO)c3cccc(Cl)c3)cnc2c1 (stereo not drawn) [Compound 485] | 10 to 100 nM | 11 to 100 nM |
| Cc1nocc1-c1ccc2c(=O)n(C(CO)c3cccc(Cl)c3)cnc2c1 (stereo not drawn) [Compound 488] | 10 to 100 nM | 101 to 500 nM |
| COc1cccc(C(CO)n2cnc3cc(-c4cn[nH]c4C)ccc3c2=O)c1 (stereo not drawn) [Compound 489] | 10 to 100 nM | 11 to 100 nM |
| COc1cccc(C(CO)n2cnc3cc(-c4cn[nH]c4C(F)(F)F)ccc3c2=O)c1 (stereo not drawn) [Compound 490] | 10 to 100 nM | 11 to 100 nM |
| NCC(c1cccc(Cl)c1)n1cnc2cc(-c3ccnc(F)c3)ccc2c1=O (stereo not drawn) [Compound 492, 3-(2-amino-1-(3-chlorophenyl)ethyl)-7-(2-fluoropyridin-4-yl)quinazolin-4(3H)-one] | 10 to 100 nM | 11 to 100 nM |
| NCC(c1cccc(Cl)c1)n1cnc2cc(-c3ccnc(N)c3)ccc2c1=O (stereo not drawn) [Compound 493] | < 10 nM | 11 to 100 nM |
| Cc1[nH]ncc1-c1ccc2c(=O)n(C(CN)c3cccc(Cl)c3)cnc2c1 (stereo not drawn) [Compound 494] | < 10 nM | < 10 nM |
| Cc1nocc1-c1ccc2c(=O)n(C(CN)c3cccc(Cl)c3)cnc2c1 (stereo not drawn) [Compound 497] | < 10 nM | 11 to 100 nM |
| COc1cccc(C(CN)n2cnc3cc(-c4cn[nH]c4C)ccc3c2=O)c1 (stereo not drawn) [Compound 498] | < 10 nM | < 10 nM |
| COc1cccc(C(CN)n2cnc3cc(-c4cn[nH]c4C(F)(F)F)ccc3c2=O)c1 (stereo not drawn) [Compound 499] | < 10 nM | < 10 nM |
| N#Cc1cccc(C(CN)n2cnc3cc(-c4ccnc(N)c4)ccc3c2=O)c1 (stereo not drawn) [Compound 501] | 100 to 500 nM | > 501 nM |
| N#Cc1cccc(C(CN)n2cnc3cc(-c4ccnc(F)c4)ccc3c2=O)c1 (stereo not drawn) [Compound 502, 3-(2-amino-1-(7-(2-fluoropyridin-4-yl)-4-oxoquinazolin-3(4H)-yl)ethyl)benzonitrile] | 100 to 500 nM | > 501 nM |
| N#Cc1cccc(C(CN)n2cnc3cc(-c4cn[nH]c4C(F)(F)F)ccc3c2=O)c1 (stereo not drawn) [Compound 503] | 100 to 500 nM | > 501 nM |
| N#Cc1cccc(C(CN)n2cnc3cc(-c4cn[nH]c4Cl)ccc3c2=O)c1 (stereo not drawn) [Compound 504] | 100 to 500 nM | > 501 nM |
| NCC(c1cccc(C(N)=O)c1)n1cnc2cc(-c3ccnc(N)c3)ccc2c1=O (stereo not drawn) [Compound 506] | 100 to 500 nM | > 501 nM |
| NCC(c1cccc(C(N)=O)c1)n1cnc2cc(-c3cn[nH]c3C(F)(F)F)ccc2c1=O (stereo not drawn) [Compound 507] | 100 to 500 nM | > 501 nM |

Next, values leading:

| IC50 [1] | IC50 [2] | SMILES |
| --- | --- | --- |
| < 10 nM | 11 to 100 nM | [2H]C([2H])([2H])NC(=O)c1cccc([C@@H](C)n2cnc3cc(-c4cn[nH]c4C(F)F)ccc3c2=O)c1 [Compound 458] |
| 10 to 100 nM | 101 to 500 nM | C[C@H](c1cccc(C(=O)NCCO)c1)n1cnc2cc(-c3cn[nH]c3C(F)F)ccc2c1=O [Compound 459] |
| < 10 nM | < 10 nM | C[C@H](c1cccc(C(=O)NCCN(C)C)c1)n1cnc2cc(-c3cn[nH]c3C(F)F)ccc2c1=O [Compound 460] |
| < 10 nM | < 10 nM | C[C@H](c1cccc(C(=O)NCC2CCN(C)CC2)c1)n1cnc2cc(-c3cn[nH]c3C(F)F)ccc2c1=O [Compound 461] |
| < 10 nM | 11 to 100 nM | C[C@H](c1cccc(C(=O)NCC2CCOCC2)c1)n1cnc2cc(-c3cn[nH]c3C(F)F)ccc2c1=O [Compound 462] |
| < 10 nM | < 10 nM | C[C@H](c1cccc(C(=O)NC2CCN(C)CC2)c1)n1cnc2cc(-c3cn[nH]c3Cl)ccc2c1=O [Compound 464] |
| < 10 nM | < 10 nM | C[C@H](c1cccc(C(=O)NCC2CCN(C)CC2)c1)n1cnc2cc(-c3cn[nH]c3Cl)ccc2c1=O [Compound 465] |
| < 10 nM | 11 to 100 nM | [2H]C([2H])([2H])NC(=O)c1cccc([C@@H](C)n2cnc3cc(-c4cn[nH]c4Cl)ccc3c2=O)c1 [Compound 467] |
| 10 to 100 nM | 101 to 500 nM | CNC(=O)c1cccc([C@H](C)n2cnc3cc(-c4cn[nH]c4Cl)ccc3c2=O)c1 [Compound 468] |
| < 10 nM | < 10 nM | Cc1nocc1-c1ccc2c(=O)n([C@H](C)c3cccc(C(=O)NCC4CCN(C)CC4)c3)cnc2c1 [Compound 472] |
| < 10 nM | < 10 nM | Cc1nocc1-c1ccc2c(=O)n([C@H](C)c3cccc(C(=O)NCC4CCNCC4)c3)cnc2c1 [Compound 473] |
| < 10 nM | 11 to 100 nM | Cc1nocc1-c1ccc2c(=O)n([C@H](C)c3cccc(C(=O)NCCN4CCOCC4)c3)cnc2c1 [Compound 474] |
| < 10 nM | 11 to 100 nM | CNC(=O)c1cccc([C@@H](C)n2cnc3cc(-c4ccnn4C)ccc3c2=O)c1 [Compound 476] |
| < 10 nM | 11 to 100 nM | [2H]C([2H])([2H])NC(=O)c1cccc([C@@H](C)n2cnc3cc(-c4ccnn4C)ccc3c2=O)c1 [Compound 477] |
| < 10 nM | 11 to 100 nM | C[C@H](c1cccc(C(=O)N[C@H]2C[C@@H](O)C2)c1)n1cnc2cc(-c3ccnn3C)ccc2c1=O [Compound 478] |
| < 10 nM | 11 to 100 nM | C[C@H](c1cccc(C(=O)NCC2COC2)c1)n1cnc2cc(-c3ccnn3C)ccc2c1=O [Compound 479] |
| 10 to 100 nM | 101 to 500 nM | C[C@H](c1cccc(C(=O)NCCO)c1)n1cnc2cc(-c3ccnn3C)ccc2c1=O [Compound 480] |
| 10 to 100 nM | 101 to 500 nM | CNC(=O)c1cccc([C@@H](C)n2cnc3cc(-c4ccnc(N)c4)ccc3c2=O)c1 [Compound 481] |
| 10 to 100 nM | 11 to 100 nM | O=c1c2ccc(-c3cn[nH]c3Cl)cc2ncn1C(CO)c1cccc(Cl)c1 (stereo not drawn) [Compound 487] |
| 10 to 100 nM | 11 to 100 nM | COc1cccc(C(CO)n2cnc3cc(-c4cn[nH]c4Cl)ccc3c2=O)c1 (stereo not drawn) [Compound 491] |
| < 10 nM | < 10 nM | NCC(c1cccc(Cl)c1)n1cnc2cc(-c3cn[nH]c3Cl)ccc2c1=O (stereo not drawn) [Compound 496] |
| < 10 nM | < 10 nM | COc1cccc(C(CN)n2cnc3cc(-c4cn[nH]c4Cl)ccc3c2=O)c1 (stereo not drawn) [Compound 500] |
